Measurements: patent US20200121666A1, “TAU PHOSPHORYLATION INHIBITORS AND METHODS FOR TREATING OR PREVENTING ALZHEIMER'S DISEASE” (THE METHODIST HOSPITAL SYSTEM, priority 2017, published 2020)

What was measured:
[1] = test system: 3D AD model (#A5); test: RNA-seq canonical pathway analysis of 3D AD cultures treated with anti-Aβ drugs; format: cell-based, human; conditions: anti-Aβ drug treatment versus DMSO
Description: FIG. 15. […] Pearson correlations of global gene expression profile among 2D undifferentiated control ReN cells, 3D control (G2# B2on), AD # A5 (# A5, moderate Aβ42/40 ratio ˜0.2), AD # D4 (# D4, high Aβ42/40 ratio, ˜1.4), and AD # H10 (# H10, extra high Aβ42/40 ratio, ˜1.7). Units are log CPM. b. Volcano plots show −log10(FDR) vs log FC distribution for G2# B2 (control) vs AD # A5 (AD), AD # A5 DMSO vs AD # A5 BSI (BACE inhibitor, Ly2886721), and AD # A5 DMSO vs AD # A5 GSM (gamma secretase modulator, SGSM15606) transcriptomic signatures. […] Canonical pathway analysis between G2# B2 and AD # A5 (Ingenuity pathway analysis, Qiagen). d. Analysis of common canonical pathways. The pathway analysis among G2# B2 vs AD # A5, AD # A5 DMSO vs AD # A5 BSI, and AD # A5 DMSO vs AD # A5 GSM. Activation z-scores indicate that majority of decreased pathways in AD # A5 are restored by BSI and/or GSM treatments. e. […]
To examine the multiple single-clonal AD models, unbiased whole genome RNA-seq analyses were performed to compare gene expression profiles among the clonal AD models with different Aβ42/40 ratios, as compared to control 3D cultures and undifferentiated 2D control cells (FIG. 15a-d). […] Differential gene expression profile of 3D AD cultures were analyzed after treating anti-Aβ drugs (BACE1 inhibitor, Ly2886721; Gamma-secretase modulator (GSM), GSM15606) (FIG. 15b). […]

[2] = test system: phospho-tau (AT8) in ReNCell VM cells carrying the APPSL mutation; test: High-content screen of phospho-tau (AT8) staining in 3D cultured FAD neural stem cells; format: cell-based, human; conditions: for inhibition of pTau / tau hyperphosphorylation: primary screen of 2,640 compounds, compound added from the beginning of culture, whole-well AT8 images
Description: FIG. 1. High-content screening. FAD-transfected neural stem cells were 3D cultured in matrigel and treated with each compound. Cells were stained with phospho-tau antibody (AT8). Images covering the whole well were taken and quantified as the readout.
A 3D human neural culture model of AD was developed by culturing ReNCell VM cells carrying the APPSL mutation in a thin layer (50˜100 μm thick) of Matrigel. This method was then miniaturized to 96, 384, or other high content well plate formats (FIG. 1) to provide a faithful model for testing the effect of compounds on AD. However, the high-throughput screening is limited by its readout of microscopy images, which cannot be analyzed manually in large quantity.
To enable high-throughput in vitro screening, an image-processing program was developed, based on NeuriteIQ software^17-23 (FIG. 2A), to automatically quantify tau phosphorylation from images of cultured cells. The program processes images from th e nucleus and neurite channels separately. In the nucleus channel, nuclei are detected and segmented by local maximum detection and watershed method. In the neurite channel, phospho-tau stained cells are treated as two-dimensional curvilinear structures and processed based on the local Hessian matrix^24,25, which allows the detection of center points and local directions of neurites in a field. The program reliably quantified the number of neurons with hyper-phosphorylated tau (FIG. 2B). Thus, a high-content screening system for the identification of compounds targeting the tau pathology in AD was established.
Known drug and bioactive compounds (2,640 compounds) were selected for the initial screen from the Sigma-Aldrich LOPAC (1280), Tocriscreen Total Library (1120), and a manual selection of 240 Kinase Inhibitors. […] A few of the 38 compounds have been previously reported to inhibit tau phosphorylation in AD animal models (e.g., baicalein^26 and tretinoin^27), further validating the credibility of the screen. Most, however, are novel AD candidates.

[3] = test system: tau phosphorylation; conditions: previously reported; cited from earlier work
[4] = test system: pTau in AD-in-a-dish model; test: Validation of SMART-predicted compounds in the reformatted high content AD-in-a-dish model; design: species or system human; conditions: cell-based validation of 26 purchased SMART predictions
Description: Twenty-two of the 38 aforementioned screening hits had LINCS data covering the perturbation profiles for at least 4 cell lines. From these 22 hits, 2 were eliminated because no known drug candidates ranked high enough based on transcriptomic similarities to these two primary hits; and 3 others were removed upon inspection of the compound properties of the predictions they made, i.e., the predicted drugs may be toxic or unfit for systematic use. Thus, the 17 primary hits shown in Table 1 were used to initiate a pilot run using the SMART framework. The cMAP algorithm^7 was used to rank all compounds in the LINCSCloud, based on the similarity of transcriptomic profiles to each of the 17 primary hits. If any compound was determined by cMAP algorithm to have a similarity score larger than 90 to at least one of the primary hits, it was identified as a hit candidate. After filtering based on pharmacology features, 85 candidates predicted by 17 primary hits (Table 1) remained; 26 of these 85 compounds were purchased for validation after analysis for pharmacology and medical practice features.

[5] = test system: 3D AD cell model transcriptome; test: Whole genome RNAseq after compound treatment versus control; format: cell-based, human; conditions: for immune and inflammatory related pathways (5 of 6 connected to 12 down-regulated genes): after treatment versus control; for down-regulated genes in PPI subnetwork, shared by both treatments / up-regulated genes in PPI subnetwork, shared by both treatments: |log FC|>1.5 versus control
Description: PPI information was extracted from STRING database version 10.5 with the cutoff for confidence score at 0.4.
Given ebselen and leflunomide in FIG. 17, an unbiased whole genome RNAseq analysis was used to obtain transcriptomic profiles after the treatment of each compound and compare them separately to control conditions. For both treatments, a subset of genes and pathways show significant change (|log FC|>1.5) in the same direction over control condition. […] These 22 genes have 102 PPI pairs among them, and there are 7 genes directly connected to APP (coding Aβ) or MAPT (coding Tau).
It's worth noting that the enrichment of immune and inflammatory related pathway changes is consistent with the characteristics of the 3D cell model, as this system contains astrocytes, which is one of the brain innate immune cells. […] Also, neuroinflammatory pathways are highly unregulated in high Abeta42/40 lines (D4 and H10) as compared to A5 (similar to GA2) (data not shown).

[6] = test system: p-tau (pSer396/Ser404); test: Quantitative immunofluorescence staining in 3D AD models with high Aβ42/40 ratios; format: cell-based, human; conditions: 5 μM for 3 weeks
Description: FIG. 17. Validation of primary hit candidates. Primary hit candidates were confirmed using Western blot analysis (a) and quantitative immunofluorescence staining in 3D AD models with high Aβ42/40 ratios (# HReN and # A4H1) (b). PHF1 pSer396/Ser404 tau antibody was used to detect changes in phospho tau in 3D AD # HReN cells treated with DMSO vehicle, ebselen, or leflunomide.
In addition to MSD Mesoscale ELISA shown in FIG. 16, quantitative Western blot and immunofluorescence analysis were used to validate candidate drugs. […] Ebselen and leflunomide are compounds screened from original HCS screening of […] biologically active/FDA-approved drug library. […] Moreover, quantitative immunofluorescence staining was used to analyze p-tau changes after treating these compounds.

SMILES: COc1nc(-c2cc(C)c(NC(C)c3ccc(F)cc3)nn2)ccc1-n1cnc(C)c1 (centres unmarked) [GSM15606]
- enriched canonical pathways of the 3D AD model [1]: significantly altered

SMILES: CCC(C)[C@H]1O[C@]2(CC[C@@H]1C)C[C@@H]1C[C@@H](C/C=C(\C)[C@@H](O[C@H]3C[C@H](OC)[C@@H](O[C@H]4C[C@H](OC)[C@@H](O)[C@H](C)O4)[C@H](C)O3)[C@@H](C)/C=C/C=C3\CO[C@@H]4[C@H](O)C(C)=C[C@@H](C(=O)O1)[C@]34O)O2 (some centres unmarked) [ivermectin]
- inhibition of pTau / tau hyperphosphorylation [2]: almost completely inhibited
- inhibition of pTau / tau hyperphosphorylation ([2]; listed as Ivermectin): most significant phenotype

SMILES: NC1=N[C@@]2(c3cc(NC(=O)c4ccc(F)cn4)ccc3F)COC[C@H]2CS1 [Ly2886721]
- enriched canonical pathways of the 3D AD model [1]: significantly altered

SMILES: N=C(N)c1ccc(OCCCCCOc2ccc(C(=N)N)cc2)cc1 [pentamidine, pentamidine isethionate]
- inhibition of pTau / tau hyperphosphorylation [2]: almost completely inhibited

SMILES: O=c1cc(-c2ccccc2)oc2cc(O)c(O)c(O)c12 [baicalein]
- tau phosphorylation in AD animal models [3]: inhibit

SMILES: CC1=C(/C=C/C(C)=C/C=C/C(C)=C/C(=O)O)C(C)(C)CCC1 [retinoic acid]
- tau phosphorylation in AD animal models [3]: inhibit

SMILES: CC[N+](CC)(CC)CCOc1ccc(/C=C/c2ccccc2)cc1 [MG624, mg 624]
- tau phosphorylation, late addition ([2]; compound added after week 2, when tau phosphorylation should have already developed): significantly reduced
- tau phosphorylation, late addition ([2]; compound added after week 4, cells fixed and stained at week 6): significantly reduced
- inhibition of pTau / tau hyperphosphorylation [2]: almost completely inhibited

SMILES: Oc1c(Cl)cc(Cl)c2cccnc12 [chloroxine]
- inhibition of pTau [4]: validated hits

SMILES: O=c1c2ccccc2[se]n1-c1ccccc1 [ebselen]
- immune and inflammatory related pathways (5 of 6 connected to 12 down-regulated genes) [5]: significantly down-regulated
- down-regulated genes in PPI subnetwork, shared by both treatments [5]: 15 genes
- up-regulated genes in PPI subnetwork, shared by both treatments [5]: 7 genes

SMILES: Cc1oncc1C(=O)Nc1ccc(C(F)(F)F)cc1 [leflunomide]
- immune and inflammatory related pathways (5 of 6 connected to 12 down-regulated genes) [5]: significantly down-regulated
- down-regulated genes in PPI subnetwork, shared by both treatments [5]: 15 genes
- up-regulated genes in PPI subnetwork, shared by both treatments [5]: 7 genes
- cellular viability and neurite networks [6]: without affecting
- p-tau (pSer396/Ser404) accumulation [6]: robustly decreased

SMILES: C1CCC(C(CC2CCCCN2)C2CCCCC2)CC1.O=C(O)/C=C\C(=O)O (centres unmarked) [Perhexiline, perhexiline maleate]
- inhibition of pTau [4]: successful predictions
